{
  "source": "paper PMC4751974",
  "about": "“Deriving Heterospecific Self-Assembling Protein–Protein Interactions Using a Computational Interactome Screen” (Journal of Molecular Biology, 2016)",
  "system": "coiled-coil pairs within the eight-peptide interactome",
  "test": "Thermal denaturation followed by CD at 222 nm (Tm of coiled-coil pairs)",
  "format": "binding",
  "settings": "Table 1 and text, CD 222 nm, 150 μM total peptide (75 μM per peptide for heterodimers), 10 mM potassium phosphate, 100 mM potassium fluoride, pH 7, -8 to 95 °C in 1 °C steps, two-state fit",
  "procedure": "CD was carried out using an Applied Photophysics Chirascan CD apparatus (Leatherhead, UK) using a 200-μl sample in a CD cell with a 1-mm path length. Samples contained 150 μM total peptide (Pt) concentration at equimolar concentration for heterodimeric solutions (i.e., 75 μM per peptide) and suspended in 10 mM potassium phosphate and 100 mM potassium fluoride at pH 7 1 h prior to analysis. The CD spectra of samples were scanned between 300 nm and 190 nm in 1-nm steps, averaging 0.5 s at each wavelength. Three scans at 20 °C were averaged to assess helical levels and coiled-coil structure.\nThermal denaturations were performed at 150 μM Pt in 10 mM potassium phosphate and 100 mM potassium fluoride, pH 7, using an Applied Photophysics Chirascan CD instrument (Leatherhead, UK). The temperature ramp was set to stepping mode using 1 °C increments and paused for 30 s at each temperature before measuring ellipticity at 222 nm. For all temperature denaturation experiments, data collection was started at − 8 °C, and at this temperature, the peptide solutions remained aqueous. Data collection continued to 95 °C. Data points for thermal denaturation profiles represent the averaged signal after 4 s of data collection. Melting profiles (see Fig. 3a) were ≥ 95% reversible with equilibrium denaturation curves fitted to a two-state model, derived via modification of the Gibbs–Helmholtz equation [6], [45], [46], to yield the melting temperature (Tm). […] Tm values were determined by least-squares fitting of the denaturation assuming a two-state folding model that is widely used for coiled coils and provided an excellent fit to our data.",
  "data": [
    {"sequence": "ASENAALEAKIAALKYEIAALEAKNAALKGAP [Peptide 6, N- and C-capped coiled-coil peptide; 6-6 is the homomeric sample]", "values": [
      {"measurement": "Tm", "result": 53, "unit": "°C"}
    ]},
    {"sequence": "ASENAALEAKNAALKYKIAALKAEIAALEGAP [Peptide 1, N- and C-capped coiled-coil peptide; 1-1 is the homomeric sample]", "values": [
      {"measurement": "Tm", "result": 32, "unit": "°C"}
    ]},
    {"sequence": "ASKIAALKAKNAALKYENAALEAEIAALEGAP [Peptide 7, N- and C-capped coiled-coil peptide; 7-7 is the homomeric sample]", "values": [
      {"measurement": "Tm", "setting": "listed as 7-7", "result": 11, "unit": "°C"}
    ]},
    {"sequence": "ASKNAALKAENAALEYEIAALEAKIAALKGAP [Peptide 2, N- and C-capped coiled-coil peptide; 2-2 is the homomeric sample]", "values": [
      {"measurement": "Tm", "result": 20, "unit": "°C"}
    ]},
    {"sequence": "ASKNAALKAEIAALEYKIAALKAENAALEGAP [Peptide 5, N- and C-capped coiled-coil peptide; 5-5 is the homomeric sample]", "values": [
      {"measurement": "Tm", "result": 53, "unit": "°C"}
    ]},
    {"sequence": "ASEIAALEAENAALEYKNAALKAKIAALKGAP [Peptide 8, N- and C-capped coiled-coil peptide; 8-8 is the homomeric sample]", "values": [
      {"measurement": "Tm", "setting": "listed as 8-8", "result": 27, "unit": "°C"}
    ]}
  ]
}
